Five molecules from patent US20250122193A1, “NOVEL PYRIDOCARBAZOLIUM COMPOUNDS AND MEDICAL USES THEREOF” (MyCural Therapeutics, priority 2021, published 2025) can be followed below.

Data set [1] concerns Rat1 fibroblasts TGR1 (wt MYC) and HOMyc3 (reconstituted MYC). As to the kind of experiment: WST-1 growth/viability assay, MYC-expressing Rat1 fibroblasts. Conditions: TGR1, HO15.19 and HOMyc3. The format is cell-based, rat. On the technique in general: Tetrazolium dyes change colour on reduction, which living cells bring about.
Description: A) Immortalized Rat1 fibroblasts with different MYC status; TGR1 (wt MYC), HO15.19 (MYC−/−) and HOMyc3 (HO15.19 with reconstituted MYC) were treated with indicated concentrations of MYCMI-7 for 48 hours. Cell proliferation/viability/metabolic activity was measured using the WST-1 assay. […] “Responsive” and “less responsive”; cell lines with positive and negative log 10 GI50 values, respectively. […] For the WST-1 assays the average of three different experiments performed in triplicates is shown.
Cell growth and viability assays: Cell growth and viability was estimated in triplicates with WST-1 (Roche) or Resazurin sodium salt (Sigma-Aldrich) assays in medium at 37° C. and 5% CO2 for 2 hours after which absorbance or fluorescence, respectively, was measured with an Omega Fluostar (BMG Labtech) in a 96 well plate format.
In another data set the target is Recombinant human Top2a (Homo sapiens, UniProt P11388). Description: Top2 decatenation assay. Conditions: for effect on TOP2A activity: 1-100 μM. In kind it is biochemical. The method, then: Top2 decatenation assay: Recombinant human Top2a (15 nM) was incubated with 80 ng catenated kinetoplast DNA (Topogen, TG2013) in Top2 reaction buffer (50 mM Tris pH8, 150 mM NaCl, 10 mM MgCl2, 0.5 mM DTT, 30 μg/ml BSA) with 1-100 μM of either doxorubicin, MYCMI-7, ellipticine or camptothecin for 10 minutes at 37° C. Drug dilutions were made in a DMSO/H2O solution so that a final concentration of 1% DMSO was consistent across all samples. The reaction was stopped with the addition of SDS to a final concentration of 1% and the Top2a was digested by Proteinase K at 55° C. for 10 minutes. DNA was purified by phenol:chloroform extraction before running on a 1% agarose gel either containing or post-stained with 0.5 μg/ml ethidium bromide. The decatenated products were quantified, normalised to the Top2α+DMSO control and plotted using GraphPad Prism.
First, we utilized an in vitro TOP2A decatenation assay. TOP2 enzymes decatenate kinetoplast DNA (kDNA) converting a network of interlocking DNA rings into individual rings that can be separated by agarose gel electrophoresis.

The subject of a further data set is p53 expression. Description: p53 expression by western blot. The format is cell-based. Conditions: 5 μM, HCT116 cells. The method, then:
(§1) A) Measurement of MYC mRNA expression by RTqPCR after treatment with MYCMI-7 and different topoisomerase inhibitors at indicated concentrations. […] D) Western blot analysis of p53 and p21 expression after exposure to 5 μM MYCMI-7, ellipticine or camptothecin (CPT) in HCT116 cells. E) Western blot analysis of phospho-ATM, total ATM and p53 expression after exposure to indicated concentrations of MYCMI-7 and ellipticine in A375 cells after 3 hrs treatment.
(§2) For western blot equal amounts of proteins ([…]) were separated on a 4-12% SDS-PAGE gel. Proteins were transferred to Immobilion-P membrane (Millipore) and detected by immunostaining and chemoluminescence (Immobilion western HRP substrate; Millipore). For immunoprecipitations 500-1000 μg of protein was used. […] Briefly, cells were crosslinked with 1% formaldehyde on ice for 6 minutes. Nuclear chromatin was sonicated on ice to fragments from 0.3 kb to 0.5 kb. Nuclear chromatin equivalent to 2.5×10^7 cells was immunoprecipitated with 2 μg antibody.
In general terms: In western blotting, separated proteins are transferred to a membrane and probed.

The subject of the next data set is phosphorylation of ATM. As to the kind of experiment: phospho-ATM and p53 by western blot, A375. The format is cell-based. To be noted: 5 μM, A375 cells, 3 hrs. The method, then: as §1, §2
Another data set concerns the target MYC:MAX interaction (Homo sapiens, UniProt P01106). As to the kind of experiment: split Gaussia luciferase (GLuc) assay, MYC:MAX. In kind it is cell-based. Also on record: replacing the existing Zip-gene (GCN4) with full length MYC, MYCN or MAX cDNA; expressed in transfected cells; host or cells: HeLa. To be noted: HeLa cells. The method, then:
(§3) A) Molecular structure of MYCMI-7. B-E) split Gaussia luciferase (GLuc) assay. MYC or MYCN and MAX Gluc constructs were co-transfected into HeLa cells together with a firefly luciferase vector. 24 hours post transfection cells were treated with compounds, and after another 17-24 hours cells were harvested and both GLuc and firefly luciferase activities were measured. The mean of three different experiments is shown. Treatment with: B) 5 μM of MYCMI-7, 64 μM 10058-F4 or 5 μM JQ1, respectively, C) 6.5 μM MYCMI-7 on cells expressing MYC:MAX GLuc vs. GCN4:GCN4 GLuc, D) 5 μM MYCMI-7 and 5 μM ellipticine. E) 5 μM MYCMI-7 for various time points. F) in situ proximity ligation assay (isPLA). […] MYC:GAL4 was used as negative control in the isPLA assay. G) Quantification of isPLA dots. (H) Co-immunoprecipitation (co-IP) of endogenous MYC and MAX proteins from MCF7 cells after treatment with 5 μM MYCMI-7 at various times. IP=immunoprecipitation; W=western blot. I) Chromatin immunoprecipitation (ChIP) of MYC at the ODC1 target gene promoter after treatment of cells with 5 μM MYCMI-7 for 6 hours. J) MYC target gene ODC1 expression after treatment with 5 μM MYCMI-7, quantified by qPCR. K) ChIP of MYC at the ODC promoter in MCF7 cells after 5 μM MYCMI-7 treatment for indicated time points. L) Recombinant MYC bHLHZip protein domain immobilized onto a CM5 chip was subjected to various concentrations of MYCMI-7 and the complex of MYCbHLHZip-MYCMI-7 was measured as response units by SPR. The sensogram was produced by subtracting the blank response.
0.2-0.4 μg of each GLuc-construct together with 0.05 μg pCMV-LUC (firefly luciferase) were used per transfection in 12 well plates. 24 hours later cells were treated with compound or DMSO. After another 17 hours, the cells were harvested and lyzed in passive lysis buffer (Promega) supplemented with complete protease inhibitor (Roche). After 60 min incubation at room temperature 20 μM D-luciferin was added (substrate of Firefly luciferase) and luminescence was measured in a Lumat LB9501 (Berthold) or OmegaFluostar (BMG Labtech) luminometer. Directly after, Gaussia luciferase substrate Coelenterazine (Promega) was added to a final concentration of 20 μM in a mixture with “Stop n' Glow” (Promega) and the luciferase activity was measured. The ratio between Gaussia and Firefly luciferase values were calculated and normalized to DMSO-treated control cells.

In another data set the target is T1, MYCN:MAX interaction (Homo sapiens, UniProt P04198).
T1 construct: replacing the existing Zip-gene (GCN4) with full length MYC, MYCN or MAX cDNA; expressed in transfected cells; host or cells: HeLa
T1 sequence (P04198 1-464): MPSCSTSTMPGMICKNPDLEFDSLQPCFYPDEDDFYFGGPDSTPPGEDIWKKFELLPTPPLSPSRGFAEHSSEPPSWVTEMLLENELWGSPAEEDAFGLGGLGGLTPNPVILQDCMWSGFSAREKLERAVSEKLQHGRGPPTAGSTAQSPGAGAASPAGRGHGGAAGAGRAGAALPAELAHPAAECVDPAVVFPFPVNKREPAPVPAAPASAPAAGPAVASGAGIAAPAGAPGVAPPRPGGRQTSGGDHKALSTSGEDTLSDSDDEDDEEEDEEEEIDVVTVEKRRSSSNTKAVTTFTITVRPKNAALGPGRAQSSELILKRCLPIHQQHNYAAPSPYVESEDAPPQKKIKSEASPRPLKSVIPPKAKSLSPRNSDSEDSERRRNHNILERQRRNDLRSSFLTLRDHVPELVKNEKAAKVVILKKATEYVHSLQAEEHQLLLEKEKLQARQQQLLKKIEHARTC
As to the kind of experiment: split Gaussia luciferase (GLuc) assay, MYCN:MAX. To be noted: HeLa cells. In kind it is cell-based. The method, then: as §3, with “K) ChIP of MYC at the ODC promoter in MCF7 cells after 5 μM MYCMI-7 treatment for indicated time points.” left out, “The sensogram was produced by subtracting the blank response.” left out
0.2-0.4 μg of each GLuc-construct together with 0.05 μg pCMV-LUC (firefly luciferase) were used per transfection in 12 well plates. […] After 60 min incubation at room temperature 20 μM D-luciferin was added (substrate of Firefly luciferase) and luminescence was measured in a Lumat LB9501 (Berthold) or OmegaFluostar (BMG Labtech) luminometer. Directly after, Gaussia luciferase substrate Coelenterazine (Promega) was added to a final concentration of 20 μM in a mixture with “Stop n' Glow” (Promega) and the luciferase activity was measured. The ratio between Gaussia and Firefly luciferase values were calculated and normalized to DMSO-treated control cells.

The subject of the next data set is MYC mRNA. Description: MYC mRNA expression by RT-qPCR. The format is cell-based. To be noted: 1 μM. As to the method:
as §1

Sequence of MYC:MAX interaction (P01106 16-454): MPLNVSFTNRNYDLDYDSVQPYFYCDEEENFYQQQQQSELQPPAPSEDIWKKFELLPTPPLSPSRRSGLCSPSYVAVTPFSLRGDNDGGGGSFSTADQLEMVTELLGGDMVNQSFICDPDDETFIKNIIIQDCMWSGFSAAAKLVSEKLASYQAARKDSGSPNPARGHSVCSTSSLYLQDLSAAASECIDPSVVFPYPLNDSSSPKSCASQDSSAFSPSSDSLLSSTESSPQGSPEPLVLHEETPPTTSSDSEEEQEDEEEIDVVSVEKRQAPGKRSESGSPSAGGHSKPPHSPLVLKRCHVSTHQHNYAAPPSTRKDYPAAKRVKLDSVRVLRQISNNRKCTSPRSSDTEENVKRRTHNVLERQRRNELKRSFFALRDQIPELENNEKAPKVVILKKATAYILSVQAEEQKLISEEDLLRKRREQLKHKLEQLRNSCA
Sequence of Recombinant human Top2a (P11388 whole entry): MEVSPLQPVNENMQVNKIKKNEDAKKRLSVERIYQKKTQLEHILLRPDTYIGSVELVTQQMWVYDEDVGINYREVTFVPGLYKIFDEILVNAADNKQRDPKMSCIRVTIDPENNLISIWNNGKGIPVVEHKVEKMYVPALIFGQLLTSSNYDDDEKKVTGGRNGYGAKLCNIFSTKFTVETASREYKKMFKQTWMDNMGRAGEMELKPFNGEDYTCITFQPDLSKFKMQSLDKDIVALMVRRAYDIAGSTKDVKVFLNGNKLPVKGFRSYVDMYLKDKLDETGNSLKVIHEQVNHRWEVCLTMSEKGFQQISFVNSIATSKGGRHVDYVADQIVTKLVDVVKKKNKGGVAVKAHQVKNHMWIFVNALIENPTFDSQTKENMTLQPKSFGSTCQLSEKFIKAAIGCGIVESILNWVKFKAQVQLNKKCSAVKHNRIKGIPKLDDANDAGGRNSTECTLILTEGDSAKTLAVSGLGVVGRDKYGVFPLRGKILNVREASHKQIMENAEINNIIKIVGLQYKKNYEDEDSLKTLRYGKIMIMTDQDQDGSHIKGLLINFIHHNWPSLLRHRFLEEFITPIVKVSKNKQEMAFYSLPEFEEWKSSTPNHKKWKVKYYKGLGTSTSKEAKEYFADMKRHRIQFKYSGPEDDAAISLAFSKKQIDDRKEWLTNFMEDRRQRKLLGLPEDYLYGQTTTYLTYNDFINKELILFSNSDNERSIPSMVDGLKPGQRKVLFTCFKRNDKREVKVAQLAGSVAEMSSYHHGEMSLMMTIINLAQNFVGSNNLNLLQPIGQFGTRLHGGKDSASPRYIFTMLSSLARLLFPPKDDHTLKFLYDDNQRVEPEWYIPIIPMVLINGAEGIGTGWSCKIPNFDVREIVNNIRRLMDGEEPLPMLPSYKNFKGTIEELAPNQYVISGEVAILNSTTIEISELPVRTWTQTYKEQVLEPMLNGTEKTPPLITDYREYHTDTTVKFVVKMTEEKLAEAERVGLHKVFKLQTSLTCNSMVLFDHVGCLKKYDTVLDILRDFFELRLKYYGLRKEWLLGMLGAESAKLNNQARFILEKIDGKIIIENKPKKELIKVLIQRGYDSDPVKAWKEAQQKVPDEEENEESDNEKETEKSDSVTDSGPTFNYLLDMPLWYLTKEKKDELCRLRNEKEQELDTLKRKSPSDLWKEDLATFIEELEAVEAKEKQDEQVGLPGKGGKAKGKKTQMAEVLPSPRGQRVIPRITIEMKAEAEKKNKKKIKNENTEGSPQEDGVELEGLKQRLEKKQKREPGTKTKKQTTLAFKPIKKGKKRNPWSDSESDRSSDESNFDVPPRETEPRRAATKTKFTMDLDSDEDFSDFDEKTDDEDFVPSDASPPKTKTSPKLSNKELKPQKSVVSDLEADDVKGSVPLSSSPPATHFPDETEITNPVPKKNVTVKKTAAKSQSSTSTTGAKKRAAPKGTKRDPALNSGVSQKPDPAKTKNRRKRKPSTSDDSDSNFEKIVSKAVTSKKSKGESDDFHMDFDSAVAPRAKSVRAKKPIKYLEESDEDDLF

Consider `Cc1c2ccncc2c(C)c2c1[nH]c1ccccc12` [ellipticine, reference compound], for which the “growth of Rat1 cell clones irrespective of MYC status” value in data set [1] is given as “reduced growth of all three cell clones”. On Recombinant human Top2a, the “effect on TOP2A activity” value was “no effect”. Besides, in the data set on p53 expression, the p53 expression entry is listed as “induced p53 expression”. Also, in the data set on phosphorylation of ATM, the “phosphorylation of ATM and p53 expression (DDR signaling)” value is listed as “strongly induced”. For the same molecule, the “inhibition of MYC:MAX GLuc interaction” value against MYC:MAX interaction (5 μM) is “inactive”.

On to `Cc1sc2c(c1C)C(c1ccc(Cl)cc1)=N[C@@H](CC(=O)OC(C)(C)C)c1nnc(C)n1-2` [JQ1], for which, on MYCN:MAX interaction (5 μM), the “inhibition of MYCN:MAX GLuc interaction” value is “only weak effects”. Besides, at MYC:MAX interaction (5 μM), the “inhibition of MYC:MAX GLuc interaction” value was “only weak effects”.

Regarding `COc1cccc2c1C(=O)c1c(O)c3c(c(O)c1C2=O)C[C@@](O)(C(=O)CO)C[C@@H]3O[C@H]1C[C@H](N)[C@H](O)[C@H](C)O1` [doxorubicin], the “MYC expression (mRNA)” value with MYC mRNA is “strongly reduced”. For the same molecule, on Recombinant human Top2a (in vitro decatenation of kDNA), the “concentration at which TOP2A inhibition starts” value was 3 µM and the “concentration of complete TOP2A inhibition” value is 10 µM.

Take `CC[C@@]1(O)C(=O)OCc2c1cc1n(c2=O)Cc2cc3ccccc3nc2-1` [camptothecin, reference compound]: the “effect on TOP2A activity” value on Recombinant human Top2a is “no effect”. In addition, the p53 expression result in the data set with p53 expression is on record as “induced p53 expression”.

For the molecule `CCc1ccc(/C=C2/SC(=S)NC2=O)cc1` [Example 10058-F4, 10058-F4], the “inhibition of MYCN:MAX GLuc interaction” value against MYCN:MAX interaction (64 μM) is on record as “only weak effects”. Also, the “inhibition of MYC:MAX GLuc interaction” value on MYC:MAX interaction (64 μM) was “only weak effects”.
